According to patent publication US11344574B2, “Fluoro substituted porphyrin compounds, pharmaceutical compositions comprising the same, and methods of preparing and using the same” (Duke University, priority 2017, dated 2022):
Entries after “also recorded” stand apart in the source; their conditions may differ.

What was measured:
[1] = Toxicity in a rat and mouse study; assay type: in vivo
Description: Also, such differences could not have been anticipated based just on the aqueous chemistry and diverse physical properties of those compounds. Such effects likely result from the differences in the polarities of those molecules: strongly polar character of 12 fluorine atoms relative to 4 polar oxygen atoms. […] Despite being equally lipophilic, a higher efficacy of MnTF3Pen-2-PyP^5+ than MnTnBuOE-2-PyP^5+ was observed.

[2] = test system: 4T1 breast tumor; experiment: Mouse flank 4T1 tumor radio- and chemosensitization study, MnP 0.2 mg/kg; assay type: in vivo; details: triple combination MnP 0.2 mg/kg sc + ascorbate + radiation, listed as MnTF3Pen-2-PyP^5+
Procedure: Female Balb/c mice were injected subcutaneously (on flank) with 1 million cells. […] 24 hours after the first injection of Mn porphyrins the radiation started at 2.5 Gy per day for 3 days. Fractionated radiation regime was used to better reflect the clinical scenario. […] Injection of drugs was continued daily. Once the study was completed when mice reached on average 2000 mm^3 volume, the mice were sacrificed, and tumors, normal muscle from opposite leg and liver were collected and levels of Mn porphyrins analyzed by LCMS/MS.

[3] = SOD mimicking: catalysis of O2.^− dismutation; assay type: biochemical; details: ability to mimic SOD enzyme in catalysis of O2.^− dismutation
[4] = Ability of MnP to catalyze ascorbate oxidation, initial rates assessed spectrally; details: initial rate of ascorbate oxidation; 10 μM MnP, 1 mM Asc, aerobic, 25 °C, pH 7.8
[5] = Metal-centered reduction potential for the Mn^IIIP/Mn^IIP redox couple; assay type: physicochemical; details: vs normal hydrogen electrode
[6] = Brain accumulation of MnPs with different administration routes; assay type: in vivo; details: route-dependent
Description: MnF3Pen accumulates in the brain at levels which are (route-dependently) up to 50% lower than those of MnBuOE due to its more polar fluorine atoms.

[7] = Maximal tolerable dose (MTD) studies; assay type: in vivo, rats; details: subcutaneous
Procedure: The dose we identified as entirely safe was then given for 2 weeks. […] A dose above 0.5 mg/kg of MnTF3Pen-2-PyP^5+ seems to impose some toxicity expressed as hypotonia and reluctance to ambulate. We have thus decided to continue with 0.5 mg/kg which appears as safe non-toxic MTD dose for multiple dosing.

[8] = test system: prostate tissue; experiment: Radioprotection of prostate tissue, histopathology (H&E); details: for radioprotection of prostate tissue: rats, 0.5 mg/kg sc, single 20 Gy RT, 0.5 mg/kg
Procedure: Tissue was stained with H&E.
Mn4 administration started at 24 hours before RT. Mn4 was given at 0.5 mg/kg sc for the first 4 weeks daily except for weekends, and then twice weekly for the next 5 weeks. Single 20 Gy RT dose was given.
The tissues were preserved, half of them in formalin and another half snap-frozen for different analyses. Prostate is the only tissue directly radiated and the penile function was known to suffer radiation damage.

[9] = test system: radiation-induced erectile dysfunction; experiment: Radioprotection of erectile function after 20 Gy radiation; assay type: in vivo; details: rats, 0.5 mg/kg sc, single 20 Gy RT, with and without ascorbate, 9 weeks
Procedure: Mn4 administration started at 24 hours before RT. Mn4 was given at 0.5 mg/kg sc for the first four weeks daily (except for weekends) and then twice weekly for next five weeks. Single 20 Gy RT dose was given stereotactically.
10 rats per group were studied. MnF3Pen was given at 0.5 mg/kg sc for the first four weeks daily except for weekends, and then twice weekly for the next five weeks.
Single radiation dose of 20 Gy was delivered stereotactically, using image guided small animal radiator.
It was used at 0.1 mg/kg (at week 6 and 9).
Based on earlier studies, erectile dysfunction has been assessed at 9 weeks. […] Mn4 administration started at 24 hours before RT. Mn4 was given at 0.5 mg/kg sc for the first 4 weeks daily except for weekends, and then twice weekly for the next 5 weeks. Single 20 Gy RT dose was given.

[10] = Lipophilicity by TLC retention factor Rf on silica; assay type: physicochemical; details: vs two non-fluorinated lipophilic analogs
Description: Fluorination enhances the lipophilicity of MnPs as described with TLC retention factor, Rf (compound path/solvent path). Rf was obtained on silica gel plates using acetonitrile:KNO3(sat):water=8:1:1 as previously described (Tovmasyan A, Carballal S, Ghazaryan R, Melikyan L, Weitner T, Maia C G, Reboucas J S, Radi R, Spasojevic I, Benov L, and Batinic-Haberle I. Rational Design of Superoxide Dismutase (SOD) Mimics: The Evaluation of the Therapeutic Potential of New Cationic Mn Porphyrins with Linear and Cyclic Substituents. Inorg Chem 53: 11467-83, 2014).
In some embodiments, the fluoro-substituted porphyrins of the present invention may have enhanced lipophilicity (e.g., compared to non-fluoro-substituted porphyrins). Lipophilicity can be measured via thin layer chromatography. The relative lipophilicity of a group of compounds can be determined in a given solvent system. […] The fluoro-substituted porphyrins of the present invention suitably have a lipophilicity of greater than zero in a solvent system of acetonitrile:water:KNO3 (saturated aqueous) (8:1:1). Alternatively, the lipophilicity may be quantified by the standard octanol/water partition coefficient (log P). In some embodiments, the lipophilic fluoro-substituted porphyrins may have a greater bioavailability than their hydrophilic analogs. […]

[11] = Pharmacokinetic studies in plasma and organs, 1 mg/kg; assay type: in vivo, rats; details: for Cmax: male, rat
Procedure: Whenever possible, the PK profiles of MnF3Pen were compared to MnTnBuOE-2-PyP^5+ (MnBuOE, Mn2), the drug presently in two clinical trials.
3 rats were used per time point. The following time points were tested: 30 min, 1, 2, 6, 24 hours, and 3 and 7 days. The tissues were taken after the rats were perfused with PBS to eliminate blood content of organs and, therefore its interference with blood content of organs. At 6 h, three additional rats were used to assess the effect of perfusion. In addition to plasma, the following organs were analyzed: liver, kidney, prostate, penis, testis, rectum, bladder, and brain. We have collected liver due to Mn porphyrins accumulating at the highest level in this organ; it then serves as a depot to maintain levels of drug in plasma and other organs. We also took the brain because toxicity of Mn porphyrins has been seen at that level present in the brain. Whenever possible the comparison with MnBuOE has been done. […] MnBuOE was used as internal standard.

[12] = test system: wild strain E. coli; experiment: Toxicity by aerobic growth of wild strain E. coli; assay type: cell-based; details: vs MnTnHex-2-PyP^5+ and MnTnBuOE-2-PyP^5+
Procedure: Herein we explored the member of a new class of Mn porphyrin-based therapeutics, MnTF3Pen-2-PyP^5+ (MnTF3Pen, Mn4) (FIG. 1). We have maintained major structural properties that support the redox-activity of MnPs, yet modified peripheral substituents by introducing polar fluorine atoms. […] The properties of Mn porphyrins (given in arbitrary units) which cumulatively define their therapeutic index: SOD-like activities, lipophilicities and toxicities. […] Toxicities are evaluated based on the aerobic growth of wild strain E. coli—a simple but accurate assay used for over 2 decades to identify the compounds with clinical potential.

FC(F)(F)CCCC[n+]1ccccc1C1=C2C=CC3=[N+]2[Mn]24[n]5c1ccc5C(c1cccc[n+]1CCCCC(F)(F)F)=C1C=CC(=[N+]12)C(c1cccc[n+]1CCCCC(F)(F)F)=c1ccc([n]14)=C3c1cccc[n+]1CCCCC(F)(F)F [Mn4, 5,10,15,20-tetra(Mn(III) 5′,5′,5′-trifluoropentylpyridinium-2-yl)porphinato pentachloride]
toxicity compared with MnTnBuOE-2-PyP^5+ [1]: less toxicity
tumor growth inhibition [2]: larger tumor growth inhibition; also recorded: Strong tumor suppression
log kcat (O2−^•) [3]: 7.48
v0(Asc oxid) [4]: 297 nM/s
E1/2, mV vs NHE [5]: +288 mV
brain levels lower than those of MnBuOE [6]: up to 50%
MTD at 2 weeks ([7]; rat, in vivo, sc, safe non-toxic dose for multiple dosing): 0.5 mg/kg
dose imposing some toxicity (hypotonia, reluctance to ambulate) [7]: above 0.5 mg/kg
morphological findings, prostate glands ([8]; RT+Mn4+Asc group (heading printed twice)): Local glands presented few large bizarre nuclei, some cells showed enlarged irregular nucleus and obvious nucleolus
radioprotection of prostate tissue [8]: significant radioprotection of prostate tissue
radioprotection of prostate tissue ([8]; listed as MnTF3Pen-2-PyP^5+): suppresses radiation (RT) damage to prostate tissue
bladder and rectum pathology ([8]; with respect to control non-radiated tissues): no changes on bladder and rectum pathology
prevention of radiation-induced erectile dysfunction [9]: fully prevented radiation-induced erectile dysfunction
lipophilicity (in words) [10]: more lipophilic
levels in the tissues of interest ([11]; 1 mg/kg): higher than 100 nM
tolerability ([11]; 1 mg/kg): well tolerated
accumulation in liver ([11]; 1 mg/kg, vs MnBuOE): lower accumulation in liver
plasma half-life ([11]; 1 mg/kg, vs MnBuOE): longer plasma half-life
levels in all tissues of interest ([11]; FIG. 11): above 0.1 μM
highest levels, liver ([11]; liver, FIG. 11): about 1 μM
Cmax ([11]; bladder, 1 mg/kg): 450 nM
Cmax ([11]; penis, 1 mg/kg): 250 nM
Cmax ([11]; prostate, 1 mg/kg): 150 nM
Cmax ([11]; rectum, 1 mg/kg): 105 nM
Cmax ([11]; testes, 1 mg/kg): 190 nM
toxicity [12]: less toxic
